Laboratory results as given in patent publication US7507727B2, “Substituted quinobenzoxazine analogs and methods of using thereof” (Cylene Pharmaceuticals, Inc., priority 2003, dated 2009).
Like-named read-outs stand apart in the source and are kept apart here.

Tests used:
[1] = Pharmacokinetic/toxicokinetic evaluation in dogs; type: in vivo, beagle dogs; conditions: for Accumulation Ratio: Dose 5 to Dose 1 AUC(0-24), 1.2 mg/kg IV; for Tmax / AUC(0-t) / Cmax / half-life: iv, 1.2 mg/kg; for Tmax: median
Method: The study was conducted using three (3) test article and one (1) control article group. The control article was the solution (5% dextrose in water) used to dilute the test article prior to administration and was administered at the same volume as the high dose. The test article dosage levels for this study were approximately 12, 3.8, and 1.2 mg/kg. Test and control articles were administered once by intravenous (IV) infusion over approximately a one hour period on five consecutive days. Blood samples for test article blood level analysis was taken as follows (i.e., pk/tk sampling): approximately 1 mL of blood was taken from three male and three female dogs in the low dose group at approximately 20 minutes and 40 minutes from the start of the infusion, and then at the end of infusion (Time 0) and at 5, 10, 15, and 30 minutes, and 1, 2, 4, 8, 12, and 24 hours from the end of the infusion after the first and fifth doses. Also, prior to and immediately after Dose 1 and after Dose 5 for all animals, and for recovery animals prior to necropsy, approximately 5-10 second ECG tracings in a lead II configuration were obtained. Animals were terminated one (1) or 15 days after the last dose. Blood for hematology and clinical chemistry analysis was drawn pre-dose and prior to euthanasia at termination. Following euthanasia, a necropsy was performed to include collection of major organs for microscopic evaluation.
PK/TK: Blood samples for test article blood level analysis were taken. Approximately 1 mL of blood was taken from three males and three females in the low dose group at approximately 20 minutes and 40 minutes from the start of the infusion, and then at the end of infusion (Time 0) and at 5, 10, 15, and 30 minutes, and 1, 2, 4, 8, 12, and 24 hours from the end of the infusion after the first and fifth dose. Plasma (lithium heparin anticoagulant) samples were prepared and analyzed.

[2] = Subacute study of intravenously administered CX-3543 in rats (safety and tolerance); type: in vivo
Method: This study determines the safety and tolerance of CX-3543 at three dose levels administered intravenously once daily to rats for five consecutive days. Safety parameters will be monitored through observation, clinical pathology, and microscopic histopathology assessments. Selected animals will also undergo blood sample collection for pharmacokinetic/toxicokinetic evaluation.
The study was conducted using three (3) test and one (1) control article groups. The high and low test article groups and the control group consisted of 28 animals each and were used to assess tolerance. The medium test article group consisted of 64 animals of which 28 animals were used to assess tolerance and 36 animals were used to determine the level of test article in the blood at various time points after the first and fifth doses in the PK/TK portion of the study. The control article was the solution (5% dextrose in water; D5W) used to dilute the test article prior to administration and was administered at the same volume as the high dose test article group. The test article dosage levels for this study were 24, 7.6, and 2.4 mg/kg. Test and control articles were administered by intravenous (IV) injection into a tail vein over one minute on five consecutive days.
Blood samples for test article blood level analysis were taken as follows. […]

Structure (SMILES): CN1CCCC1CCNC(=O)c1cn2c3c(c(N4CCC(c5cnccn5)C4)c(F)cc3c1=O)Oc1cc3ccccc3cc1-2 (centres unmarked) [CX-3543]
- AUC(0-inf) ([1]; beagle, dog, plasma, female, 1.2 mg/kg IV infusion, Dose 1, read-out: Mean AUC(0-inf)): 386 ng·h/mL
- AUC(0-inf) ([1]; beagle, dog, plasma, male, 1.2 mg/kg IV infusion, Dose 1, read-out: Mean AUC(0-inf)): 317 ng·h/mL
- Dose 5 to Dose 1 ratio for AUC(0-24) ([1]; female): 1.1
- AUC(0-inf) ([1]; female, Dose 1, 1.2 mg/kg IV, mean): 386.3 ng·h/mL
- Accumulation Ratio ([1]; female): 1.1
- Tmax ([1]; female, beagle, dog, plasma, Dose 1, 1.2 mg/kg IV): 0.67 h
- Tmax ([1]; female, beagle, dog, plasma, Dose 5, 1.2 mg/kg IV): 1 h
- AUC(0-t) ([1]; female, beagle, dog, plasma, female, 1.2 mg/kg IV infusion, Dose 1, read-out: Mean AUC(0-24)): 381 ng·h/mL
- Cmax ([1]; female, beagle, dog, plasma, female, 1.2 mg/kg IV infusion, Dose 1, read-out: Mean Cmax): 139 ng/mL
- half-life ([1]; female, beagle, dog, plasma, female, 1.2 mg/kg IV infusion, Dose 1, read-out: mean terminal half-life (converted)): 3.8 h
- AUC(0-t) ([1]; female, beagle, dog, plasma, female, 1.2 mg/kg once daily, Dose 5, read-out: Mean AUC(0-24)): 444 ng·h/mL
- Cmax ([1]; female, beagle, dog, plasma, female, 1.2 mg/kg once daily, Dose 5, read-out: mean Cmax): 145 ng/mL
- Cmax ([1]; female, beagle, dog, plasma, female, Dose 1, 1.2 mg/kg IV once daily, mean, read-out: Cmax): 139 ng/mL
- half-life ([1]; female, beagle, dog, plasma, female, Dose 1, 1.2 mg/kg IV, harmonic mean, read-out: T1/2 (converted)): 3.8 h
- AUC(0-t) ([1]; female, beagle, dog, plasma, female, Dose 1, 1.2 mg/kg IV, mean, read-out: AUC(0-24)): 381 ng·h/mL
- Cmax ([1]; female, beagle, dog, plasma, female, Dose 5, 1.2 mg/kg IV once daily for 5 days, mean, read-out: Cmax): 145 ng/mL
- half-life ([1]; female, beagle, dog, plasma, female, Dose 5, 1.2 mg/kg IV, harmonic mean, read-out: T1/2 (converted)): 5.2 h
- AUC(0-t) ([1]; female, beagle, dog, plasma, female, Dose 5, 1.2 mg/kg IV, mean, read-out: AUC(0-24)): 444 ng·h/mL
- half-life ([1]; female, beagle, dog, plasma, female, Dose 5, read-out: mean terminal half-life (converted)): 5.2 h
- Dose 5 to Dose 1 ratio for AUC(0-24) ([1]; male): 1.2
- AUC(0-inf) ([1]; male, Dose 1, 1.2 mg/kg IV, mean): 316.9 ng·h/mL
- Accumulation Ratio ([1]; male): 1.2
- Tmax ([1]; male, beagle, dog, plasma, Dose 1, 1.2 mg/kg IV): 0.67 h
- Tmax ([1]; male, beagle, dog, plasma, Dose 5, 1.2 mg/kg IV): 1 h
- AUC(0-t) ([1]; male, beagle, dog, plasma, male, 1.2 mg/kg IV infusion, Dose 1, read-out: Mean AUC(0-24)): 314 ng·h/mL
- Cmax ([1]; male, beagle, dog, plasma, male, 1.2 mg/kg IV infusion, Dose 1, read-out: Mean Cmax): 108 ng/mL
- half-life ([1]; male, beagle, dog, plasma, male, 1.2 mg/kg IV infusion, Dose 1, read-out: mean terminal half-life (converted)): 3.2 h
- AUC(0-t) ([1]; male, beagle, dog, plasma, male, 1.2 mg/kg once daily, Dose 5, read-out: Mean AUC(0-24)): 363 ng·h/mL
- Cmax ([1]; male, beagle, dog, plasma, male, 1.2 mg/kg once daily, Dose 5, read-out: mean Cmax): 126 ng/mL
- Cmax ([1]; male, beagle, dog, plasma, male, Dose 1, 1.2 mg/kg IV once daily, mean, read-out: Cmax): 108 ng/mL
- half-life ([1]; male, beagle, dog, plasma, male, Dose 1, 1.2 mg/kg IV, harmonic mean, read-out: T1/2 (converted)): 3.2 h
- AUC(0-t) ([1]; male, beagle, dog, plasma, male, Dose 1, 1.2 mg/kg IV, mean, read-out: AUC(0-24)): 314 ng·h/mL
- Cmax ([1]; male, beagle, dog, plasma, male, Dose 5, 1.2 mg/kg IV once daily for 5 days, mean, read-out: Cmax): 126 ng/mL
- half-life ([1]; male, beagle, dog, plasma, male, Dose 5, 1.2 mg/kg IV, harmonic mean, read-out: T1/2 (converted)): 5.2 h
- AUC(0-t) ([1]; male, beagle, dog, plasma, male, Dose 5, 1.2 mg/kg IV, mean, read-out: AUC(0-24)): 363 ng·h/mL
- half-life ([1]; male, beagle, dog, plasma, male, Dose 5, read-out: mean terminal half-life (converted)): 5.2 h
- tolerance ([2]; five consecutive daily IV doses, mid- and low-dose levels (7.6 and 2.4 mg/kg)): toxicologically well tolerated
- mortality ([2]; high dose animals (24 mg/kg), five day course): approximately 5%
